Experimental data taken from US6849612B2, “Oligonucleotide modulation of cell adhesion” (ISIS Pharmaceuticals, Inc., priority 1993, dated 2005).
Strand notation (5' to 3'): a small letter for the sugar, then the base; units joined by * are phosphorothioate-linked, units joined directly phosphodiester-linked; [ ] holds rarer units or linkages, { } end groups; capitals alone tell only the bases. d = 2'-deoxy (DNA)

Columns and labels:
ICAM-1 [1] = experiment: ELISA of ICAM-1 cell surface expression in oligonucleotide-pretreated, cytokine-stimulated HUVEC; format: cell-based, human
ICAM-1 [2] = experiment: Immunoprecipitation of 35S-labelled ICAM-1 from A549 cells; format: cell-based, human; settings: 1 μM oligonucleotide
Experimental: The specificity of the antisense oligonucleotides ISIS 1570 and ISIS 1939 for ICAM-1 was evaluated by immunoprecipitation of ^35S-labelled proteins. A549 cells were grown to confluence in 25 cm^2 tissue culture flasks and treated with antisense oligonucleotides as described in Example 4. The cells were stimulated with interleukin-1β for 14 hours, washed with methionine-free DMEM plus 10% dialyzed fetal calf serum, and incubated for 1 hour in methionine-free medium containing 10% dialyzed fetal calf serum, 1 μM oligonucleotide and interleukin-1β as indicated. ^35S-Methionine/cysteine mixture (Tran^35S-label, purchased from ICN, Costa Mesa, Calif.) was added to the cells to an activity of 100 μCi/ml and the cells were incubated an additional 2 hours. Cellular proteins were extracted by incubation with 50 mM Tris-HCl pH 8.0, 150 mM NaCl, 1.0% NP-40, 0.5% deoxycholate and 2 mM EDTA (0.5 ml per well) at 4° C. for 30 minutes. The extracts were clarified by centrifugation at 18,000×g for 20 minutes. The supernatants were preadsorbed with 200 μl protein G-Sepharose beads (Bethesda Research Labs, Bethesda Md.) for 2 hours at 4° C., divided equally and incubated with either 5 μg ICAM-1 monoclonal antibody (purchased from AMAC Inc., Westbrook Me.) or HLA-A, B antibody (W6/32, produced by murine hybridoma cells obtained from the American Type Culture Collection, Bethesda, Md.) for 15 hours at 4° C. Immune complexes were trapped by incubation with 200 μl of a 50% suspension of protein G-Sepharose (v/v) for 2 hours at 4° C., washed 5 times with lysis buffer and resolved on an SDS-polyacrylamide gel. Proteins were detected by autoradiography.

[3] = tested on: C8161 human melanoma cells; experiment: Experimental metastasis assay of oligonucleotide-treated C8161 cells in athymic nude mice; format: in vivo
Experimental: To evaluate the role of ICAM-1 in metastasis, experimental metastasis assays were performed by injecting 1×10^5 C8161 cells into the lateral tail vein of athymic nude mice. […] Assoc. Cancer Res. 1990, 13, 353].
After 4 weeks, mice were sacrificed, organs were fixed in Bouin's fixative and metastatic lesions on lungs were scored with the aid of a dissecting microscope. Four-week-old female athymic nude mice (Harlan Sprague Dawley) were used. Animals were maintained under the guidelines of the NIH. Groups of 4-8 mice each were tested in experimental metastasis assays.
Treatment of C8161 cells with antisense oligonucleotides ISIS 1570 and ISIS 2302, complementary to ICAM-1, was performed in the presence of the cationic lipid, Lipofectin (Gibco/BRL, Gaithersburg, Md.). Antisense oligonucleotides were synthesized as described in Example 3. Cells were seeded in 60 mm tissue culture dishes at 10^6 cells/ml and incubated at 37 °C for 3 days, washed with OPTI-MEM (Gibco/BRL) 3 times and 100 μl of OPTI-MEM medium was added to each well. 0.5 μM oligonucleotide and 15 μg/ml lipofectin were mixed at room temperature for 15 minutes. 25 μl of the oligonucleotide-lipofectin mixture was added to the appropriate dishes and incubated at 37° C. for 4 hours. The oligonucleotide-lipofectin mixture was removed and replaced with DME-F12 medium containing 10% fetal calf serum. After 4 hours, 500 U/ml TNF-α was added to the appropriate wells and incubated for 18 hours at which time cells were removed from the plates, counted and injected into athymic nude mice.

[4] = tested on: complementary DNA sequences (ICAM-1 target sites); experiment: Tm of oligonucleotide hybridized to complementary DNA; format: binding, human; settings: as E23
Excerpt: The antisense oligonucleotides (synthesized as phosphorothioates) were hybridized to their complementary DNA sequences (synthesized as phosphodiesters). […] Tm's and free energies of duplex formation were obtained from fits of data to a two-state model with linear sloping baselines ([…]. and D. H. […] Results are averages of at least three experiments.

Row | Substance | inhibition of ICAM-1 expression (ICAM-1 [1]; 0.1 μM oligonucleotide, HUVEC, 8 μM DOTMA, interleukin-1β 5 units/ml) | inhibition of ICAM-1 expression (ICAM-1 [1]; 1 μM oligonucleotide, HUVEC, 8 μM DOTMA, interleukin-1β 5 units/ml) | inhibition of ICAM-1 expression (ICAM-1 [1]; 1 μM, HUVEC stimulated with increasing concentrations of tumor necrosis factor and interleukin-1) | effect on ICAM-1 expression after prehybridization to the sense strand (ICAM-1 [1]; COMPOUND 2 prehybridized to COMPOUND 3 prior to addition to the cells) | decrease of ICAM-1 synthesis (ICAM-1 [2]; 5 units/ml interleukin-1β) | No. Lung Metastases per Mouse (Mean ± S.E.M.) ([3]; C8161 cells treated with 0.5 μM oligonucleotide + Lipofectin + TNF-α, Lipofectin + TNF-α 81 ± 8) | No. Lung Metastases per Mouse (Mean ± S.E.M.) ([3]; C8161 cells treated with 0.5 μM oligonucleotide + Lipofectin, no TNF-α, Lipofectin only 64 ± 13) | Tm relative to other oligonucleotides [4] | ICAM-1 synthesis (ICAM-1 [2]; interleukin-1β)
1 | ISIS 1570: phosphorothioate, human ICAM-1 AUG Codon (64-81), SEQ ID NO 1, TGGGAGCCATAGCGAGGC (antisense dT*dG*dG*dG*dA*dG*dC*dC*dA*dT*dA*dG*dC*dG*dA*dG*dG*dC) | 70% | 90% | inhibits expression of ICAM-1 | attenuated | approximately 50% | 49 ± 6 | 38 ± 15 | – | –
2 | ISIS 1939: P=S, human ICAM-1 3′-Untranslated (1952-1971), SEQ ID NO 15, CCCCCACCACTTCCCCTCTC (antisense dC*dC*dC*dC*dC*dA*dC*dC*dA*dC*dT*dT*dC*dC*dC*dC*dT*dC*dT*dC) | – | – | – | – | – | – | – | lower than that of the majority of the other oligonucleotides | near background
